Patent US11965100B2, “Aggregation-induced emission luminogens useful for cancer cell discrimination and monitoring” (The Hong Kong University of Science and Technology, priority 2020, dated 2024)

How the values were obtained:
[1] = system: cancer cells (A549 and HeLa) co-cultured with normal cells (COS7 and HLF); assay: CLSM imaging of cancer cells co-cultured with normal cells; assay type: cell-based; conditions: 30 min
Experimental: FIG. 5 CLSM images of live cancer cells (A549 and HeLa) co-cultured with normal cells (COS7 and HLF) (A), and the images of A549 and HLF cells seeded on different cover glasses (Scale bar=20 μm) (B) stained with 2 μM IVP-02 for 30 min (Scale bar=50 μm), respectively. λex=488 nm, λem=500-650 nm.
FIG. 10 CLSM images of live cancer cells (A549) co-cultured with normal cells (COS7) (A), and the images of A549 and HLF cells seeded on different cover glasses Scale bar=20 μm (B) stained with 2 μM IVP-02, 04, 06, 22, 42, and 62 for 30 min Scale bar=50 μm, respectively. (The first column in B is the same as FIG. 3B) λex=488 nm, λem=500-650 nm.
FIG. 11 CLSM images of live cancer cells (HeLa) co-cultured with normal cells (COS7), stained with 2 μM IVP-02, 04, 06, 22, 42, and 62 for 30 min, respectively. λex=488 nm, λem=500-650 nm. Scale bar=20 μm.
FIG. 12 CLSM images of live cancer cells (A549) co-cultured with normal cells (HLF), stained with 2 μM IVP-02, 04, 06, 22, 42, and 62 for 30 min, respectively. λex=488 nm, λem=500-650 nm. Scale bar=20 μm.
The bioimaging properties of IVP-02 in live cells were investigated by confocal laser scanning microscopy (CLSM). Cancer cells (A549 and HeLa) and normal cells (COS7 and HLF) were stained with IVP-02, respectively. […] So IVP-02 holds the high potential to differentiate cancer and normal cells. To verify this speculation, cancer and normal cells were co-cultured and stained with IVP-02. […] To precisely confirm the selectivity of IVP-02 to cancer cells, cancer cells A549 and normal cells HLF (A549 and HLF are both human lung cells) were seeded on different cover glasses, respectively. Then the two cover glasses were put in the same dish and stained with IVP-02 at the same time.
Cancer cells A549 co-cultured with normal cells COS7 were stained with these molecules, respectively. […] Then HeLa cells co-cultured with COS7 cells (FIG. 11), and A549 cells co-cultured with HLF cells (FIG. 12) were also stained with these molecules, the results were similar with that in A549 cells co-cultured with COS7 cells. In addition to co-culturing, A549 cells and HLF cells were also seeded on different cover glasses and stained with these molecules. […] Based on the imaging results above, it can be concluded that the selectivity of these IVP molecules to cancer cells is also based on the length of alkyl chain at pyridinium salt side. Lengthening the alkyl chain at the pyridinium salt side will eliminate the selectivity to cancer cells.

A549 cells [2] = assay: Mitochondrion-nucleolus migration on CCCP treatment, A549 cells; assay type: cell-based, human
Experimental: (§1) FIG. 15 Live A549 cells (A) and live A549 co-cultured with COS 7 cells, live HeLa co-cultured with COS7 cells (B) were pre-stained with 2 μM IVP-02 for 30 min, and treated with 20 μM CCCP for 5 min. Then CCCP was removed away and fresh culture medium was added for another 5 min. λex=488 nm, λem=500-650 nm. Scale bar=20 μm.
FIG. 18 Live A549 cells were pre-stained with 2 μM IVP-04, 22, 42, 06, 62 for 30 min, and treated with 20 μM CCCP for 5 min. Then CCCP was removed away and fresh culture medium was added for another 5 min, respectively. λex=488 nm, λem=500-650 nm. Scale bar=20 μm.
(§2) Monitoring cell viability is a highly valuable task for the fundamental researches in biology, pathology, and medicine. Then we investigated whether IVP-02 could monitor cell viability. Δψm is a very important indicator to characterize cell viability. With the loss of cell viability, Δψm would decrease, while with the recovery of cell viability, Δψm would also recover to the normal level. […] Carbonyl cyanide m-chlorophenyl hydrazone (CCCP) is a type of protonophore and can cause rapid acidification of mitochondria by collapsing Δψm. Cancer cells A549 were pre-stained with IVP-02 for 30 min. In FIG. 15A, in the beginning, IVP-02 stained mitochondria clearly. […] Hydrogen peroxide (H2O2) can inhibit the oxidation respiratory chain that would cause the loss of cell viability. Then live A549 and HeLa cells were pre-stained with IVP-02, and treated with 10 mM H2O2.
(§3) In addition to IVP-02, we further investigated whether other IVP molecules could monitor the viability of cancer cells through mitochondrion-nucleolus migration was investigated. A549 cells were pre-stained with IVP-04, 22, 42, 06, and 62, respectively, and then CCCP was added.

HeLa cells = assay: Mitochondrion-nucleolus migration on CCCP treatment, HeLa cells; assay type: cell-based; conditions: pre-stained 2 μM 30 min, 20 μM CCCP 5 min
Experimental: FIG. 16 Live HeLa cells were pre-stained with 2 μM IVP-02 for 30 min, and treated with 20 μM CCCP for 5 min. Then CCCP was removed away and fresh culture medium was added for another 5 min. λex=488 nm, λem=500-650 nm. Scale bar=20 μm.
FIG. 19 Live HeLa cells were pre-stained with 2 μM IVP-04, 22, 42, 06, 62 for 30 min, and treated with 20 μM CCCP for 5 min. Then CCCP was removed away and fresh culture medium was added for another 5 min, respectively. λex=488 nm, λem=500-650 nm. Scale bar=20 μm.
as §2, §3

[3] = system: A549 co-cultured with COS7 cells, HeLa co-cultured with COS7 cells; assay: CCCP treatment of cancer cells co-cultured with normal cells; assay type: cell-based; conditions: A549 or HeLa with COS7, 2 μM, 20 μM CCCP added then removed
Experimental: as §1
To test whether IVP-02 could selectively stain cancer cells and monitor their viability, cancer cells and normal cells were co-cultured and stained with IVP-02. […] After CCCP was removed, the fluorescence in nucleolus disappeared, while the fluorescence in mitochondria recovered gradually. […] The same experiments were also carried out in HeLa cells co-cultured with COS7 cells shown in FIG. 15B and similar phenomena were observed.

A549 cells [4] = assay: Cytotoxicity by standard MTT assay; assay type: cell-based, human; conditions: summary statement
Experimental: FIG. 22 (A) Two-photon microscopy images of live HeLa cells stained with 2 μM IVP-02 for 30 min. λex=800 nm, λem=495-540 nm. Scale bar=20 μm. (B) Viability of A549 cells after incubation with IVP-02, 04, 06, 22, 42, and 62 at different concentrations for 24 h.
The potential long-term cytotoxicity of bioprobes should be carefully considered for imaging in live cells. Then we studied the cytotoxicity of these IVP molecules to live A549 cells by standard MTT assay. […] While the incubation concentration is 10 μM, the cell viability was between 60% and 80%, showing certain cytotoxicity. Nonetheless, all cell imaging experiments in this work were conducted at low concentration 2 μM, which is reasonable and acceptable.

## CC[n+]1ccc(/C=C/c2c[nH]c3ccccc23)cc1 [IVP-02]
[1]; A549 and HeLa co-cultured with COS7 and HLF, 2 μM
  staining of co-cultured cancer and normal cells: only cancer cells (A549 and HeLa) were highly illuminated
[1]; A549 co-cultured with COS7, 2 μM
  staining of co-cultured cancer and normal cells: only stain A549 cells
A549 cells [2]; A549, CCCP removed, fresh medium 5 min
  migration back to mitochondria after removal of CCCP: migrated back to mitochondria
A549 cells [2]; A549, pre-stained 2 μM 30 min, 20 μM CCCP 5 min
  migration from mitochondria to nucleolus after addition of CCCP: released from mitochondria and migrated to nucleolus
HeLa cells
  nucleolus staining after addition of CCCP: could stain nucleolus
[3]
  selective staining and viability monitoring in co-cultured cells: could selectively stain cancer cells and monitor their viability through mitochondrion-nucleolus migration
A549 cells [4]
  cytotoxicity: low cytotoxicity
